These results are taken from PubChem BioAssay (NCI).

Each structure is given as a SMILES string.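 Cells were grown in 96-well plates and exposed to each compound for 48 hours at five concentrations; endpoints were interpolated linearly between bracketing concentrations, or set to the highest concentration if not reached. GI50 is the concentration that inhibits growth by half. TGI: total growth inhibition.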

Test systems include CCRF-CEM leukemia; HOP-62 NSCLC; IGROV1 ovarian; M14 melanoma; MOLT-4 leukemia; NCI-H522 lung; OVCAR-4 ovarian; SK-MEL-28 melanoma; SK-MEL-5 melanoma; SR leukemia.
Assay in all cases: inhibition of tumour cell growth, NCI panel, 48 h

For `CC(=O)Nc1ccc(-n2cnc3cc(-c4ccc(OCCN5CCCCC5)cc4)ccc32)cc1`, the GI50 in the assay with CCRF-CEM leukemia is 6.57 µM; with HOP-62 NSCLC, 5.08 µM; in the assay with IGROV1 ovarian, 4.93 µM; in the assay with M14 melanoma, 5.34 µM; in the assay on MOLT-4 leukemia it was 5.71 µM; with NCI-H522 lung, 6.79 µM. The GI50 in the assay on OVCAR-4 ovarian was 4.85 µM; in the assay with SK-MEL-28 melanoma it was 4.45 µM; in the assay with SK-MEL-5 melanoma, 5.22 µM; in the assay on SR leukemia, 0.895 µM. The TGI came out at 23.9 µM with CCRF-CEM leukemia; 11.6 µM in the assay on HOP-62 NSCLC; 11.5 µM in the assay with IGROV1 ovarian; 10.4 µM in the assay with M14 melanoma; 25 µM with MOLT-4 leukemia; 13.7 µM in the assay with NCI-H522 lung. Also, the TGI was 11.7 µM in the assay on OVCAR-4 ovarian, 9.06 µM in the assay with SK-MEL-28 melanoma, 9.72 µM in the assay with SK-MEL-5 melanoma and 3.74 µM in the assay with SR leukemia.

For `O=C(Nc1ccccc1)Nc1ccccc1CNc1nc(Nc2ccc(OCCN3CCCC3)cc2)ncc1Cl`, the GI50 with CCRF-CEM leukemia is 2.02 µM; in the assay on HOP-62 NSCLC, 6.96 µM; in the assay on IGROV1 ovarian it was 7.02 µM; in the assay with M14 melanoma, 2.51 µM; in the assay with MOLT-4 leukemia, 2.96 µM; in the assay with NCI-H522 lung it was 5.3 µM. The GI50 in the assay on OVCAR-4 ovarian is 1.81 µM; in the assay on SK-MEL-28 melanoma, 5.62 µM; with SK-MEL-5 melanoma it was 5.27 µM; with SR leukemia, 1.91 µM. The TGI in the assay on CCRF-CEM leukemia was found to be 17.8 µM; in the assay on HOP-62 NSCLC, 21.8 µM; in the assay with IGROV1 ovarian, 15.4 µM; in the assay on M14 melanoma, 9.79 µM; with MOLT-4 leukemia, 20 µM; with NCI-H522 lung it was 18.8 µM. The TGI in the assay with OVCAR-4 ovarian was 7.84 µM; in the assay on SK-MEL-28 melanoma, 11.9 µM; with SK-MEL-5 melanoma, 11.9 µM; in the assay on SR leukemia it was more than 50 µM.

On to `Cc1csc(Nc2nc(-c3cccc(Cl)c3)nc(C(Cl)(Cl)Cl)n2)n1`, for which the GI50 in the assay on CCRF-CEM leukemia was 21.7 µM; in the assay on HOP-62 NSCLC, 1.27 µM; in the assay with IGROV1 ovarian, 15.7 µM; in the assay on M14 melanoma, more than 33.3 µM; in the assay with MOLT-4 leukemia it was 14 µM; in the assay on NCI-H522 lung it was more than 33.3 µM. Moreover, the GI50 in the assay on OVCAR-4 ovarian was 10.7 µM; with SK-MEL-28 melanoma, 3.53 µM; in the assay with SK-MEL-5 melanoma it was more than 33.3 µM; in the assay on SR leukemia it was 16.8 µM. In addition, the TGI in the assay on CCRF-CEM leukemia is more than 33.3 µM; in the assay with HOP-62 NSCLC, 7.99 µM; with IGROV1 ovarian it was more than 33.3 µM; with M14 melanoma, more than 33.3 µM; with MOLT-4 leukemia it was more than 33.3 µM; in the assay on NCI-H522 lung, more than 33.3 µM. Further, the TGI with OVCAR-4 ovarian, in the assay on SK-MEL-28 melanoma, in the assay on SK-MEL-5 melanoma and in the assay on SR leukemia was more than 33.3 µM in each case.

Regarding `O=C(CC(C(=O)O)N1CCOCC1)c1ccccc1` (stereo not given), the TGI in the assay with CCRF-CEM leukemia is 15 µM; in the assay on HOP-62 NSCLC, 86.9 µM; in the assay on IGROV1 ovarian, 63.2 µM; in the assay on M14 melanoma it was 30.8 µM; with MOLT-4 leukemia, 35.5 µM; in the assay on NCI-H522 lung, more than 100 µM. For the same compound, the TGI in the assay on OVCAR-4 ovarian came to 43.2 µM; in the assay with SK-MEL-28 melanoma, 36.6 µM; in the assay on SK-MEL-5 melanoma, 43 µM; in the assay on SR leukemia, 35.5 µM.

As for `CCCCCCCCCCCCCCCCCC1=NC(C)(C)CN1CCO`, the GI50 with CCRF-CEM leukemia was 1.92 µM; with HOP-62 NSCLC it was 1.82 µM; with IGROV1 ovarian it was 1.56 µM; in the assay on M14 melanoma, 1.81 µM; with MOLT-4 leukemia it was 1.96 µM; with NCI-H522 lung, 1.55 µM. The GI50 in the assay with OVCAR-4 ovarian was 3.12 µM; in the assay on SK-MEL-28 melanoma it was 1.81 µM; with SK-MEL-5 melanoma, 2.16 µM; with SR leukemia it was 1.5 µM. Further, the TGI in the assay on CCRF-CEM leukemia worked out at 5.05 µM; in the assay with HOP-62 NSCLC, 3.54 µM; in the assay on IGROV1 ovarian it was 3.11 µM; in the assay on M14 melanoma, 3.49 µM; in the assay on MOLT-4 leukemia, 4.73 µM; with NCI-H522 lung it was 3.15 µM. In addition, the TGI worked out at 9.8 µM in the assay on OVCAR-4 ovarian, 3.2 µM in the assay with SK-MEL-28 melanoma, 4.95 µM in the assay on SK-MEL-5 melanoma and 4.02 µM in the assay with SR leukemia.

For the compound `C=CC[PH+](c1ccccc1)c1ccccc1.C=CC[PH+](c1ccccc1)c1ccccc1.[Cl][Pt][Cl]`, the GI50 is 3.6 µM in the assay with CCRF-CEM leukemia; 18.5 µM in the assay on HOP-62 NSCLC; 3.68 µM with IGROV1 ovarian; 6.35 µM with M14 melanoma; 3.11 µM with MOLT-4 leukemia; 2.68 µM in the assay with NCI-H522 lung. Besides, the GI50 in the assay with OVCAR-4 ovarian was 4.78 µM; with SK-MEL-28 melanoma it was 7.69 µM; in the assay with SK-MEL-5 melanoma it was 15.8 µM; in the assay on SR leukemia, 2.84 µM. The TGI in the assay with CCRF-CEM leukemia is more than 100 µM; with HOP-62 NSCLC, 40.5 µM; with IGROV1 ovarian it was 13.9 µM; in the assay on M14 melanoma it was 22.3 µM; with MOLT-4 leukemia, 14 µM; in the assay with NCI-H522 lung, 8.19 µM. The TGI was 16.8 µM with OVCAR-4 ovarian, 21.3 µM in the assay with SK-MEL-28 melanoma, 30.6 µM in the assay on SK-MEL-5 melanoma and 11.7 µM in the assay with SR leukemia.
